According to the NIST ThermoML archive (doi:10.1021/acs.jced.5b00444):
Numbers after ± are expanded uncertainties.

experiment: molar enthalpy of vaporization or sublimation; details: 298 K; Liquid; Chromatographic retention time

molar enthalpy [kcal/mol] | SMILES
25.789 ± 0.0239 | CCCCCCCCCCCCCCCCCC(=O)OC [methyl octadecanoate]
29.16 ± 0.239 | CCCCCCCCCCCCCCCCCCCCCCCCCC [hexacosane]
24.833 ± 0.0239 | CCCCCCCCCCCCCCCCCCCC [eicosane]
27.796 ± 0.0239 | CCCCCCCCCCCCCCCCCCCCC(=O)OC [methyl heneicosanoate]
26.12 ± 0.12 | CCCCCCCCCCCCCCCCCC(=O)OCC [ethyl octadecanoate]
26.29 ± 0.239 | CCCCCCCCCCCCCCCCCCCCCC [docosane]
27.749 ± 0.0239 | CCCCCCCCCCCCCCCCCCCCCCCC [tetracosane]
24.331 ± 0.0239 | CCCCCCCCCCCCCCCC(=O)OC [methyl hexadecanoate]
28.466 ± 0.0239 | CCCCCCCCCCCCCCCCCCCCCCCCC [pentacosane]
26.554 ± 0.0239 | CCCCCCCCCCCCCCCCCCCC(=O)OC [methyl eicosanoate]
30.74 ± 0.12 | CCCCCCCCCCCCCCCCCCCCCCCCCCCC [octacosane]

SMILES | molar enthalpy [kcal/mol]
CCCCCCCCOC(=O)c1ccccc1C(=O)OCCCCCCCC [dioctyl 1,2-benzenedicarboxylate] | 29.33 ± 0.0478
CCCCOC(=O)c1ccccc1C(=O)OCCCC [dibutyl phthalate] | 23.73 ± 0.0239
COC(=O)c1ccccc1C(=O)OC [dimethyl 1,2-benzenedicarboxylate] | 20.12 ± 0.0239
CCOC(=O)c1ccccc1C(=O)OCC [diethyl phthalate] | 21.18 ± 0.0239
CCCCOC(=O)c1ccccc1C(=O)OCc1ccccc1 [benzyl butyl 1,2-benzenedioate] | 26.24 ± 0.0478
CCCCC(CC)COC(=O)c1ccccc1C(=O)OCC(CC)CCCC (configuration not stated) [bis(2-ethylhexyl) 1,2-benzenedicarboxylate] | 27.94 ± 0.0239
